We go through nine compounds from publication PMC3071364, “Collagenolytic Activities of the Major Secreted Cathepsin L Peptidases Involved in the Virulence of the Helminth Pathogen, Fasciola hepatica” (PLoS Neglected Tropical Diseases, 2011).

The target in series [1] is T1, FhCL3 (Fasciola hepatica, UniProt B3TM67). The experiment in a line: Hydrolysis of fluorogenic peptidyl-NHMec substrates by recombinant FhCL3. The class given is biochemical. The note with it: for kcat/Km fold increase over FhCL1 / kcat/Km fold lower than FhCL1: FhCL3 compared to FhCL1; for fold better cleavage efficiency of FhCL3 than FhCL2: FhCL3 compared to FhCL2. As for the experimental part: (§1) Initial rates were obtained at 37°C over a range of substrate concentrations spanning Km values (0.2–200 µM) and at fixed enzyme concentrations (0.5–5 nM). Assays were performed in 100 mM sodium phosphate buffer (pH 6.0) containing 1 mM DTT and 1 mM EDTA. Rate constants for the inactivation of the Fasciola enzymes by Z-Phe-Ala-CHN2 and cathepsin K inhibitor II were determined from progress curves in the presence of substrate as previously described.

Series [2] has as its target T2, FhCL2 (Fasciola hepatica, UniProt Q7JNQ8). Briefly: Hydrolysis of fluorogenic peptidyl-NHMec substrates by recombinant FhCL2. The class given is biochemical. Particulars: FhCL2 compared to FhCL1. As for the experimental part: as §1
The target in series [3] is T1, FhCL3. Briefly: Inactivation of recombinant FhCL3 by inhibitors (progress curves in presence of substrate). It is filed as biochemical. Here is the method:
as §1

The target in a further series is T3, FhCL1 (Fasciola hepatica, UniProt Q7JNQ9).
T3 construct: His tag (inferred from Ni-NTA purification) (C); made in house; host or cells: Pichia pastoris
The experiment in a line: Inactivation of recombinant FhCL1 by inhibitors (progress curves in presence of substrate). It is filed as biochemical. The note with it: for Ki: FhCL1. Here is the method: as §1

The target in series [4] is T2, FhCL2. The experiment in a line: Inactivation of recombinant FhCL2 by inhibitors (progress curves in presence of substrate). It is filed as biochemical. Here is the method:
as §1

Series [5] deals with Cc1cc(=O)oc2cc(NC(=O)[C@H](CCCCN)NC(=O)[C@H](CC(C)C)NC(=O)[C@@H](NC(=O)OC(C)(C)C)C(C)C)ccc12. The experiment in a line: Hydrolysis of fluorogenic peptidyl-NHMec substrates by recombinant FhCL1. The class given is biochemical, Fasciola hepatica. The note with it: other: FhCL1, pH 6.0, 37°C. As for the experimental part:
as §1

For series [6], the system named is Cc1cc(=O)oc2cc(NC(=O)[C@H](CCCNC(=N)N)NC(=O)[C@@H]3CCCN3C(=O)CNC(=O)[C@H](C)NC(=O)OC(C)(C)C)ccc12. Described as above. The class given is biochemical, Fasciola hepatica. The note with it: other: FhCL1, pH 6.0, 37°C. As for the experimental part: as §1
In series [7] the test system is Cc1ccc(S(=O)(=O)NCC(=O)N2CCC[C@H]2C(=O)N[C@@H](CCCCN)C(=O)Nc2ccc3c(C)cc(=O)oc3c2)cc1. The description is as above. The class given is biochemical, Fasciola hepatica. Particulars: other: FhCL1, pH 6.0, 37°C. Here is the method:
as §1

The subject of series [8] is Cc1cc(=O)oc2cc(NC(=O)[C@H](CCCNC(=N)N)NC(=O)[C@@H]3CCCN3C(=O)[C@@H](NC(=O)OC(C)(C)C)C(C)C)ccc12. The series is described as above. It is filed as biochemical, Fasciola hepatica. The note with it: other: FhCL1, pH 6.0, 37°C. As for the experimental part:
as §1

In series [9] the test system is Cc1ccc(S(=O)(=O)NCC(=O)N2CCC[C@H]2C(=O)N[C@@H](CCCNC(=N)N)C(=O)Nc2ccc3c(C)cc(=O)oc3c2)cc1. The series is described as above. It is filed as biochemical, Fasciola hepatica. Particulars: other: FhCL1, pH 6.0, 37°C. As for the experimental part:
as §1

For series [10], the system named is Cc1cc(=O)oc2cc(NC(=O)[C@H](CCCNC(=N)N)NC(=O)[C@H](CC(C)C)NC(=O)OCc3ccccc3)ccc12. The series is described as above. It is filed as biochemical, Fasciola hepatica. Particulars: other: FhCL1, pH 6.0, 37°C. Here is the method: as §1
The subject of series [11] is Cc1cc(=O)oc2cc(NC(=O)[C@H](CCCNC(=N)N)NC(=O)[C@H](Cc3ccccc3)NC(=O)OCc3ccccc3)ccc12. The description is as above. The class given is biochemical, Fasciola hepatica. Particulars: other: FhCL1, pH 6.0, 37°C. As for the experimental part: as §1
Series [12] concerns Cc1cc(=O)oc2cc(NC(=O)[C@H](CCCNC(=N)N)NC(=O)[C@@H](NC(=O)[C@@H](NC(=O)OCc3ccccc3)C(C)C)C(C)C)ccc12. The description is as above. The class given is biochemical, Fasciola hepatica. Particulars: other: FhCL1, pH 6.0, 37°C. Here is the method: as §1

Like-named read-outs stand apart in the source and are kept apart here. Where a SMILES comes first, the peptide text is derived from it. The star is where a group is joined. AMC = Cc1cc(=O)oc2cc(N*)ccc12; Tos = Cc1ccc(S(=O)(=O)*)cc1; Cbz = O=C(OCc1ccccc1)*; Boc = CC(C)(C)OC(=O)*

T3 sequence (Q7JNQ9 entry or part of it): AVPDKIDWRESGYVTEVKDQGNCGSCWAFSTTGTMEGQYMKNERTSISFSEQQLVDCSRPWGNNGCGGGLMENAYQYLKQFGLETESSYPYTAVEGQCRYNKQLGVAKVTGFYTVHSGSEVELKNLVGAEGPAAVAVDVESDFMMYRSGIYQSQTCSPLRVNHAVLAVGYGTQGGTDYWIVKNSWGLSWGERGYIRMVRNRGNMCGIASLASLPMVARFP
T2 sequence (Q7JNQ8 entry or part of it): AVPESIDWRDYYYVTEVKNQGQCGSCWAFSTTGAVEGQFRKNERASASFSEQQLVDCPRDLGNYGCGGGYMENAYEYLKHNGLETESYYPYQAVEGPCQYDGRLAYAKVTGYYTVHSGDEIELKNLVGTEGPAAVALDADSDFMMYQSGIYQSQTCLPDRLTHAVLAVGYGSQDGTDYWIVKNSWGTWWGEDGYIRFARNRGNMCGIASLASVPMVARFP
T1 sequence (B3TM67 entry or part of it): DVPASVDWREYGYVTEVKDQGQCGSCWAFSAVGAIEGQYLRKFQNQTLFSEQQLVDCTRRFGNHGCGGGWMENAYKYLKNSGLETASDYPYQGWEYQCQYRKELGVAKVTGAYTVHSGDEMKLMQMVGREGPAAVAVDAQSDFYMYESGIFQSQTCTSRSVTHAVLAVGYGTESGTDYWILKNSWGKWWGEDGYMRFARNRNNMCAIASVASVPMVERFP

Turning to `Cc1cc(=O)oc2cc(NC(=O)[C@H](CCCN=C(N)N)NC(=O)[C@@H]3CCCN3C(=O)CNC(=O)[C@H](C)NC(=O)OC(C)(C)C)ccc12` [Boc-AGPR-NHMec, Boc-Ala-Gly-Pro-Arg-NHMec] (Boc-AGPR-{AMC}), the “kcat/Km fold increase over FhCL1” value is reported as 90 fold at FhCL3 [1] and 86 fold on FhCL2 [2].
Take `Cc1cc(=O)oc2cc(NC(=O)[C@H](CCCN=C(N)N)NC(=O)[C@@H]3CCCN3C(=O)[C@@H](NC(=O)OC(C)(C)C)C(C)C)ccc12` [Boc-VPR-NHMec, Boc-Val-Pro-Arg-NHMec] (Boc-Val-Pro-Arg-{AMC}): the “kcat/Km fold increase over FhCL1” value at FhCL3 [1] is listed as 3 fold; on FhCL2 [2], 44 fold.
`CC(C)C[C@H](NC(=O)OCc1ccccc1)C(=O)NNC(=O)NNC(=O)[C@H](CC(C)C)NC(=O)[C@H](Cc1ccccc1)NC(=O)OC(C)(C)C` [Cathepsin K inhibitor II, Z-LNHNHCONHNHLF-Boc]: the “fold less effective against FhCL3 compared to FhCL1” value at FhCL3 [3] (FhCL3 vs FhCL1) is 14 fold. Also, the “fold less effective against FhCL3 compared to FhCL2” value on FhCL3 [3] (FhCL3 vs FhCL2) is 20 fold. Also, the Ki at FhCL1 (Ki(app)) is 12.2 nM; on FhCL1 (Ki) it was 0.63 nM; at FhCL2 [4], 0.46 nM; at FhCL2 [4] (read-out: Ki(app)), 4.8 nM.
Turning to `Cc1ccc(S(=O)(=O)NCC(=O)N2CCC[C@H]2C(=O)N[C@@H](CCCCN)C(=O)Nc2ccc3c(C)cc(=O)oc3c2)cc1` [Tos-GPK-NHMec, Tos-Gly-Pro-Lys-NHMec] (Tos-Gly-Pro-Lys-{AMC}), the results for the “kcat/Km fold increase over FhCL1” value at FhCL3 [1] and on FhCL2 [2] were 60 fold and 22 fold, respectively. The “fold better cleavage efficiency of FhCL3 than FhCL2” value on FhCL3 [1] is 3 fold.
In the case of `Cc1ccc(S(=O)(=O)NCC(=O)N2CCC[C@H]2C(=O)N[C@@H](CCCN=C(N)N)C(=O)Nc2ccc3c(C)cc(=O)oc3c2)cc1` [Tos-GPR-NHMec, Tos-Gly-Pro-Arg-NHMec] (Tos-Gly-Pro-Arg-{AMC}), on FhCL3 [1], the “kcat/Km fold increase over FhCL1” value worked out at 142 fold and the “fold better cleavage efficiency of FhCL3 than FhCL2” value is listed as 5 fold. Also, the “kcat/Km fold increase over FhCL1” value at FhCL2 [2] is 28 fold.
As for `Cc1cc(=O)oc2cc(NC(=O)[C@H](CCCN=C(N)N)NC(=O)[C@H](Cc3ccccc3)NC(=O)OCc3ccccc3)ccc12` [Z-FR-NHMec, Z-Phe-Arg-NHMec] (Cbz-Phe-Arg-{AMC}), the “kcat/Km fold lower than FhCL1” value stood at 65 fold at FhCL3 [1] and 6 fold on FhCL2 [2].
On to `Cc1cc(=O)oc2cc(NC(=O)[C@H](CCCN=C(N)N)NC(=O)[C@H](CC(C)C)NC(=O)OCc3ccccc3)ccc12` [Z-LR-NHMec, Z-Leu-Arg-NHMec], for which the figures for the “kcat/Km fold lower than FhCL1” value on FhCL3 [1] and on FhCL2 [2] were 66 fold and 3.5 fold, respectively.
With `C[C@H](NC(=O)[C@H](Cc1ccccc1)NC(=O)OCc1ccccc1)C(=O)C=[N+]=[N-]` [Z-Phe-Ala-CHN2], on FhCL3 [3] (FhCL3 in contrast to FhCL1 and FhCL2), the “rate of inactivation of FhCL3, fold lower” value worked out at 20 fold. Also, at FhCL1 (FhCL1 compared to FhCL2), the “rate of inactivation of FhCL1, fold higher than that of FhCL2” value is about 2 fold. Moreover, the Ki on FhCL1 (Ki(app)) was 31.4 nM; at FhCL1 (Ki), 1.62 nM; on FhCL2 [4], 5.32 nM; at FhCL2 [4] (read-out: Ki(app)), 55.2 nM.
What is called Km is the concentration of substrate that gives half-maximal velocity. One may read the kcat as the maximal rate divided by the concentration of active sites. As usually defined, the kcat/Km is the second-order rate constant that governs catalysis at low substrate concentration. With FhCL1 (Fasciola hepatica), the Km in [5] was found to be 2.5 µM; in [6] it was 18.8 µM; in [7] it was 17.42 µM; in [8], 22 µM; in series [9] it was 27.2 µM; in series [10], 1.09 µM. Further, the Km was determined as 1.9 µM in series [11] and 2.84 µM in series [12]. Moreover, the catalytic constant (kcat) in [5] came out at 0.14 s⁻¹; in series [6], 0.01 s⁻¹; in series [7], 0.01 s⁻¹; in series [8], 0.01 s⁻¹; in series [9] it was 0.02 s⁻¹; in series [10], 1.63 s⁻¹. Further, the kcat stood at 0.12 s⁻¹ in series [11] and 0.021 s⁻¹ in series [12]. Further, the specificity constant (kcat/Km) in [5] came to 54300 M⁻¹ s⁻¹; in series [6] it was 674 M⁻¹ s⁻¹; in [7], 612 M⁻¹ s⁻¹; in series [8], 479 M⁻¹ s⁻¹; in [9], 672 M⁻¹ s⁻¹; in series [10], 1.49e+06 M⁻¹ s⁻¹. The specificity constant (kcat/Km) in series [11] worked out at 64900 M⁻¹ s⁻¹; in series [12], 7460 M⁻¹ s⁻¹.
